Data published in patent publication US20260015315A1, “AMINO LIPID COMPOUND, PREPARATION METHOD THEREFOR, COMPOSITION THEREOF AND APPLICATION THEREOF” (SHENZHEN SHENXIN BIOTECHNOLOGY CO., LTD., priority 2022, published 2026).

Each molecule was assayed on BALB/c mice (assay: In vivo delivery of lipid nanoparticle encapsulating luciferase mRNA (Fluc mRNA), IVIS imaging). Conditions: Fluc mRNA-LNP (amino lipid:DSPC:CHO-HP:PEG2000-DMG 48:10:40.5:1.5), 75 μL tail vein IV, female BALB/c mice, IVIS 6 hours after injection, whole body.
Description: The amino lipid compound of the present disclosure, a helper lipid, a structural lipid, and a PEG-lipid were separately dissolved in absolute ethanol to prepare respective solutions at concentrations of 20 mg/mL, 10 mg/mL, 20 mg/mL, and 25 mg/mL, respectively. The above four solutions were pipetted at a molar ratio of the amino lipid compound: DSPC:CHO-HP:PEG2000-DMG of 48:10:40.5:1.5, and mixed well to prepare an alcohol phase.
(2) Encapsulation: The water phase and the alcohol phase were injected into a microfluidic chip at a flow rate of water phase:alcohol phase=12 mL/min: 4 mL/min by using a microfluidic preparation instrument (MPE-L2), and encapsulation was carried out at a flow rate of water phase:alcohol phase=9 mL/min: 3 mL/min to obtain mRNA-encapsulating lipid nanoparticle (mRNA-LNP).
(3) Dialysis: The product of step (2) was loaded in a dialysis bag and placed in a Tris Buffer-8% sucrose solution for replacement to remove ingredients such as residual ethanol, unassembled lipids. Dialysis was conducted for 2 h with magnetic stirring at room temperature and under protection from light (dialysate was replaced every 1 hour).
(4) The product of step (3) was sterilized by passing through a 0.22 μm microporous membrane, and then packaged.
Lipid nanoparticle formulations encapsulating Flue mRNA were prepared, with a concentration of Flue mRNA of 0.2 μg/μL, a mass ratio of Flue mRNA to Lipid of 1:10, a particle size of 80-130 nm, and a encapsulation efficiency of 80% or higher.
• Animal preparation: Female BALB/c mice of 6-8 weeks old were selected and raised in an SPF grade breeding room. Animal testing was conducted in strict accordance with the guidelines of national health institutions and animal ethics requirements.
In vivo Delivery: prior to injection of the test LNP formulations, the LNP formulations were gently and repeatedly inverted to thoroughly mix the formulation samples. A corresponding amount of the formulation samples were aspirated with a 1 ml insulin syringe, and the LNP formulations were injected by tail vein injection (IV), with 3 mice in duplicate per formulation. Each mouse was injected with 75 μL of the luciferase mRNA (Flue mRNA)-encapsulating lipid nanoparticle formulation prepared in Experimental Example 1.
6 hours after injection of LNP formulations, mice were injected with 200 μL D-Luciferin luciferase developing substrate (Catalog No. 122799; Manufacturer: Perkin Elmer). After the substrate was injected, the mice were anesthetized by injection of 200 μl of 2.5% avertin, and the injection time of luciferase developing substrate was recorded.
The fluorescence expression intensity induced by the lipid nanoparticle encapsulating luciferase mRNA (Flue mRNA) with a representative amino lipid compound is shown in Table 4, with the amino lipid compound 118 as a control.

Compared with `CCCCCCC(CCCCCC)OC(=O)CCCCCCCCC(CCCCCCCCC(=O)OC(CCCCCC)CCCCCC)N(CCCN(C)C)C(=O)COCCCC` [compound 119], `CCCCCCC(CCCCCC)OC(=O)CCCCCCCCC(CCCCCCCCC(=O)OC(CCCCCC)CCCCCC)N(CCCN(C)C)C(=O)COCCCCC` [compound 120] is higher in “Total flux (fluorescence expression intensity)” value: 2.65E+07 for the first, 3.48E+07 for the second.

Compared with `CCCCCCOCC(=O)N(CCCN(C)C)C(CCCCCCCCC(=O)OC(CCCCCC)CCCCCC)CCCCCCCCC(=O)OC(CCCCCC)CCCCCC` [compound 121], `CCCCCCCOCC(=O)N(CCCN(C)C)C(CCCCCCCCC(=O)OC(CCCCCC)CCCCCC)CCCCCCCCC(=O)OC(CCCCCC)CCCCCC` [compound 122] is higher in “Total flux (fluorescence expression intensity)” value: 3.07E+07 for the first, 3.56E+07 for the second.

Going from `CCCCCCCCOCC(=O)N(CCCN(C)C)C(CCCCCCCCC(=O)OC(CCCCCC)CCCCCC)CCCCCCCCC(=O)OC(CCCCCC)CCCCCC` [compound 123] to `CCCCCCCCOCCC(=O)N(CCCN(C)C)C(CCCCCCCCC(=O)OC(CCCCCC)CCCCCC)CCCCCCCCC(=O)OC(CCCCCC)CCCCCC` [compound 128], the “Total flux (fluorescence expression intensity)” value falls from 5.95E+07 to 5.62E+07.

First: CCCCCCC(CCCCCC)OC(=O)CCCCCCCCC(CCCCCCCCC(=O)OC(CCCCCC)CCCCCC)N(CCCN(C)C)C(=O)CCOCCCC [compound 124]
Second: CCCCCCC(CCCCCC)OC(=O)CCCCCCCCC(CCCCCCCCC(=O)OC(CCCCCC)CCCCCC)N(CCCN(C)C)C(=O)CCOCCCCC [compound 125]
The “Total flux (fluorescence expression intensity)” value of the first is lower: 3.45E+07 for the first, 5.40E+07 for the second.

Going from `CCCCCCOCCC(=O)N(CCCN(C)C)C(CCCCCCCCC(=O)OC(CCCCCC)CCCCCC)CCCCCCCCC(=O)OC(CCCCCC)CCCCCC` [compound 126] to `CCCCCCCOCCC(=O)N(CCCN(C)C)C(CCCCCCCCC(=O)OC(CCCCCC)CCCCCC)CCCCCCCCC(=O)OC(CCCCCC)CCCCCC` [compound 127], the “Total flux (fluorescence expression intensity)” value falls from 5.39E+07 to 3.56E+07.

Same assay, conditions: Fluc mRNA-LNP, 75 μL tail vein IV, female BALB/c mice, IVIS 6 hours after injection, spleen

Compared with `CCCCCCC(CCCCCC)OC(=O)CCCCCCCCC(CCCCCCCCC(=O)OC(CCCCCC)CCCCCC)N(CCCN(C)C)C(=O)COCCCC` [compound 119], `CCCCCCC(CCCCCC)OC(=O)CCCCCCCCC(CCCCCCCCC(=O)OC(CCCCCC)CCCCCC)N(CCCN(C)C)C(=O)COCCCCC` [compound 120] is lower in “Spleen (fluorescence expression intensity)” value: 6.80E+06 for the first, 6.46E+06 for the second.

First: CCCCCCOCC(=O)N(CCCN(C)C)C(CCCCCCCCC(=O)OC(CCCCCC)CCCCCC)CCCCCCCCC(=O)OC(CCCCCC)CCCCCC [compound 121]
Second: CCCCCCCOCC(=O)N(CCCN(C)C)C(CCCCCCCCC(=O)OC(CCCCCC)CCCCCC)CCCCCCCCC(=O)OC(CCCCCC)CCCCCC [compound 122]
The “Spleen (fluorescence expression intensity)” value of the first is higher: 7.14E+06 for the first, 3.02E+06 for the second.

First: CCCCCCCCOCC(=O)N(CCCN(C)C)C(CCCCCCCCC(=O)OC(CCCCCC)CCCCCC)CCCCCCCCC(=O)OC(CCCCCC)CCCCCC [compound 123]
Second: CCCCCCCCOCCC(=O)N(CCCN(C)C)C(CCCCCCCCC(=O)OC(CCCCCC)CCCCCC)CCCCCCCCC(=O)OC(CCCCCC)CCCCCC [compound 128]
The “Spleen (fluorescence expression intensity)” value of the first is higher: 4.02E+06 for the first, 3.01E+06 for the second.

Going from `CCCCCCC(CCCCCC)OC(=O)CCCCCCCCC(CCCCCCCCC(=O)OC(CCCCCC)CCCCCC)N(CCCN(C)C)C(=O)CCOCCCC` [compound 124] to `CCCCCCC(CCCCCC)OC(=O)CCCCCCCCC(CCCCCCCCC(=O)OC(CCCCCC)CCCCCC)N(CCCN(C)C)C(=O)CCOCCCCC` [compound 125], the “Spleen (fluorescence expression intensity)” value falls from 6.18E+06 to 2.72E+06.

First: CCCCCCOCCC(=O)N(CCCN(C)C)C(CCCCCCCCC(=O)OC(CCCCCC)CCCCCC)CCCCCCCCC(=O)OC(CCCCCC)CCCCCC [compound 126]
Second: CCCCCCCOCCC(=O)N(CCCN(C)C)C(CCCCCCCCC(=O)OC(CCCCCC)CCCCCC)CCCCCCCCC(=O)OC(CCCCCC)CCCCCC [compound 127]
The “Spleen (fluorescence expression intensity)” value of the first is higher: 6.87E+06 for the first, 4.60E+06 for the second.

Same assay, conditions: Fluc mRNA-LNP, tail vein IV, BALB/c mice, 6 hours

Compared with `CCCCCCC(CCCCCC)OC(=O)CCCCCCCCC(CCCCCCCCC(=O)OC(CCCCCC)CCCCCC)N(CCCN(C)C)C(=O)COCCCC` [compound 119], `CCCCCCC(CCCCCC)OC(=O)CCCCCCCCC(CCCCCCCCC(=O)OC(CCCCCC)CCCCCC)N(CCCN(C)C)C(=O)COCCCCC` [compound 120] is lower in “(Spleen/Total Flux) * 100%” value: 25.66% for the first, 18.56% for the second.

First: CCCCCCOCC(=O)N(CCCN(C)C)C(CCCCCCCCC(=O)OC(CCCCCC)CCCCCC)CCCCCCCCC(=O)OC(CCCCCC)CCCCCC [compound 121]
Second: CCCCCCCOCC(=O)N(CCCN(C)C)C(CCCCCCCCC(=O)OC(CCCCCC)CCCCCC)CCCCCCCCC(=O)OC(CCCCCC)CCCCCC [compound 122]
The “(Spleen/Total Flux) * 100%” value of the first is higher: 23.26% for the first, 8.48% for the second.

Going from `CCCCCCCCOCC(=O)N(CCCN(C)C)C(CCCCCCCCC(=O)OC(CCCCCC)CCCCCC)CCCCCCCCC(=O)OC(CCCCCC)CCCCCC` [compound 123] to `CCCCCCCCOCCC(=O)N(CCCN(C)C)C(CCCCCCCCC(=O)OC(CCCCCC)CCCCCC)CCCCCCCCC(=O)OC(CCCCCC)CCCCCC` [compound 128], the “(Spleen/Total Flux) * 100%” value falls from 6.76% to 5.36%.

Going from `CCCCCCC(CCCCCC)OC(=O)CCCCCCCCC(CCCCCCCCC(=O)OC(CCCCCC)CCCCCC)N(CCCN(C)C)C(=O)CCOCCCC` [compound 124] to `CCCCCCC(CCCCCC)OC(=O)CCCCCCCCC(CCCCCCCCC(=O)OC(CCCCCC)CCCCCC)N(CCCN(C)C)C(=O)CCOCCCCC` [compound 125], the “(Spleen/Total Flux) * 100%” value falls from 17.91% to 5.04%.

Compared with `CCCCCCOCCC(=O)N(CCCN(C)C)C(CCCCCCCCC(=O)OC(CCCCCC)CCCCCC)CCCCCCCCC(=O)OC(CCCCCC)CCCCCC` [compound 126], `CCCCCCCOCCC(=O)N(CCCN(C)C)C(CCCCCCCCC(=O)OC(CCCCCC)CCCCCC)CCCCCCCCC(=O)OC(CCCCCC)CCCCCC` [compound 127] is higher in “(Spleen/Total Flux) * 100%” value: 12.75% for the first, 12.92% for the second.

Same assay, conditions: Fluc mRNA-LNP, tail vein IV, BALB/c mice, 6 hours; relative to Compound 118

First: CCCCCCC(CCCCCC)OC(=O)CCCCCCCCC(CCCCCCCCC(=O)OC(CCCCCC)CCCCCC)N(CCCN(C)C)C(=O)COCCCC [compound 119]
Second: CCCCCCC(CCCCCC)OC(=O)CCCCCCCCC(CCCCCCCCC(=O)OC(CCCCCC)CCCCCC)N(CCCN(C)C)C(=O)COCCCCC [compound 120]
The “Multiple of spleen delivery/total delivery (Spleen/Total Flux) to Compound 118” value (“Multiple … (Spleen/Total Flux) to Compound 118” below) of the first is higher: 22.51 for the first, 16.28 for the second.

Compared with `CCCCCCOCC(=O)N(CCCN(C)C)C(CCCCCCCCC(=O)OC(CCCCCC)CCCCCC)CCCCCCCCC(=O)OC(CCCCCC)CCCCCC` [compound 121], `CCCCCCCOCC(=O)N(CCCN(C)C)C(CCCCCCCCC(=O)OC(CCCCCC)CCCCCC)CCCCCCCCC(=O)OC(CCCCCC)CCCCCC` [compound 122] is lower in “Multiple … (Spleen/Total Flux) to Compound 118” value: 20.40 for the first, 7.44 for the second.

First: CCCCCCCCOCC(=O)N(CCCN(C)C)C(CCCCCCCCC(=O)OC(CCCCCC)CCCCCC)CCCCCCCCC(=O)OC(CCCCCC)CCCCCC [compound 123]
Second: CCCCCCCCOCCC(=O)N(CCCN(C)C)C(CCCCCCCCC(=O)OC(CCCCCC)CCCCCC)CCCCCCCCC(=O)OC(CCCCCC)CCCCCC [compound 128]
The “Multiple … (Spleen/Total Flux) to Compound 118” value of the first is higher: 5.93 for the first, 4.70 for the second.

Going from `CCCCCCC(CCCCCC)OC(=O)CCCCCCCCC(CCCCCCCCC(=O)OC(CCCCCC)CCCCCC)N(CCCN(C)C)C(=O)CCOCCCC` [compound 124] to `CCCCCCC(CCCCCC)OC(=O)CCCCCCCCC(CCCCCCCCC(=O)OC(CCCCCC)CCCCCC)N(CCCN(C)C)C(=O)CCOCCCCC` [compound 125], the “Multiple … (Spleen/Total Flux) to Compound 118” value falls from 15.71 to 4.42.

Going from `CCCCCCOCCC(=O)N(CCCN(C)C)C(CCCCCCCCC(=O)OC(CCCCCC)CCCCCC)CCCCCCCCC(=O)OC(CCCCCC)CCCCCC` [compound 126] to `CCCCCCCOCCC(=O)N(CCCN(C)C)C(CCCCCCCCC(=O)OC(CCCCCC)CCCCCC)CCCCCCCCC(=O)OC(CCCCCC)CCCCCC` [compound 127], the “Multiple … (Spleen/Total Flux) to Compound 118” value rises from 11.18 to 11.33.
